{"source": "patent US9198896B2", "about": "(priority 2006, dated 2015)", "key": {"[1]": {"assay": "Biochemical tests of blood/sera of rats after long-term treatment", "assay_type": "in vivo, rat", "conditions": "1 week after long-term treatment"}, "[2]": {"assay": "Fertility study", "conditions": "oral or intravenous, dose and schedule as chronic toxicity test"}, "[3]": {"assay": "Long-term (chronic) toxicity study, rabbits", "conditions": "rabbit, long-term treatment", "excerpt": "(§1) Long-term (chronic) toxicity study: Mode of treatment and dilution by either water or normal saline were identical to acute toxicity study. Chronic toxicity study was made with four species of animals: mice, rat, rabbit and dog.\nRabbits. For experiments with rabbits, two groups were used per mode of treatment. Each group in each mode of treatment consists of 4 animals, either male or female.\nHowever, each animal was placed in a separate cage.\n(§2) Total number of animals in each group including control and different modes of treatment: 6 (mice), 5 (rats) and 4 (rabbits). Each set of experiment was repeated 4 times for mice and rats and for rabbits 2 times respectively. […] In Table 3, αWeight of animals for mice and rats in gm and for rabbit in Kg.\nWe also measured the body weights of the animals. […] Besides, we also measured several marker enzymes and metabolites in the blood and sera of dog (see below)."}, "[4]": {"assay": "Pharmacokinetics, repeat oral dose study", "assay_type": "in vivo", "conditions": "mice; for V / k / half-life at 30 days: oral 100 mg/kg body wt./day; for half-life at 30 days: mouse, whole blood, po, 100 mg/kg, read-out: t½ (converted)"}, "[5]": {"conditions": "mice, 1 day: oral 2 g, subcutaneous 1 g, intravenous 0.3 g/kg; observed up to 90 days"}, "[6]": {"assay": "Pharmacokinetics, single oral dose study", "conditions": "for ka (apparent absorption rate constant): 1 to 4 h; for k (elimination rate constant): 4-8 h; for half-life / CL/F / Cmax / Tmax: mouse, whole blood, po"}, "[7]": {"assay": "Long-term (chronic) toxicity study, mice", "conditions": "multiple dose, observed up to 90 days after treatment", "excerpt": "as §1\nMice. For experiment with these animals, 4 batches of mice were used per mode of treatment. Each batch contained 6 animals either male or female weighing 18-25 g. […] In all the cases, control group received water or normal saline in respective manner.\nas §2"}, "[8]": {"test_system": "ascites sarcoma 180 cells", "conditions": "Együd and Szent-Györgyi, 1968; cited from earlier work"}, "[9]": {"conditions": "rats", "experimental": "as §1\nRats. For experiment with these animals, 4 batches of rats were used per mode of treatment. Each batch contained 5 rats either male or female weighing 75-80 g per animal. […] Then, the rats were injected for 3 cycles; one cycle consisted of injections for two consecutive days followed by a rest of 1 day.\nas §2\nDetails are described in the Tables."}, "[10]": {"conditions": "time after last dose Up to 48 h"}, "[11]": {"conditions": "oral 100 mg/kg/day, last dose day 30"}, "[12]": {"conditions": "mice, single oral dose 50 mg/kg"}, "[13]": {"conditions": "mice, single oral dose 100 mg/kg"}, "[14]": {"conditions": "mice, single oral dose 200 mg/kg"}}, "note": "Like-named read-outs stand apart in the source and are kept apart here."}
{"smiles": "CC(=O)C=O", "note": "[methylglyoxal]", "values": [{"measurement": "Creatine kinase", "setting": "[1]; Intravenous", "value": "0.36 ± 0.04", "unit": "units/ml"}, {"measurement": "Creatine kinase-MB", "setting": "[1]; Intravenous", "value": "0.18 ± 0.01", "unit": "units/ml"}, {"measurement": "Hb", "setting": "[1]; Intravenous", "value": "10.2 ± 0.8", "unit": "gm/dl"}, {"measurement": "Serum Urea", "setting": "[1]; Intravenous", "value": "26.3 ± 2.1", "unit": "mg/dL"}, {"measurement": "Serum alanine transaminase", "setting": "[1]; Intravenous", "value": "28 ± 1.6", "unit": "units/ml"}, {"measurement": "Serum alkaline phosphatase", "setting": "[1]; Intravenous", "value": "41.6 ± 1.2", "unit": "KA units"}, {"measurement": "Serum aspartate transaminase", "setting": "[1]; Intravenous", "value": "125 ± 5", "unit": "units/ml"}, {"measurement": "Serum creatinine", "setting": "[1]; Intravenous", "value": "0.90 ± 0.02", "unit": "mg/dL"}, {"measurement": "Serum glucose", "setting": "[1]; Intravenous", "value": "102 ± 10", "unit": "mg/dL"}, {"measurement": "Creatine kinase", "setting": "[1]; Oral", "value": "0.37 ± 0.05", "unit": "units/ml"}, {"measurement": "Creatine kinase-MB", "setting": "[1]; Oral", "value": "0.16 ± 0.03", "unit": "units/ml"}, {"measurement": "Hb", "setting": "[1]; Oral", "value": "10.4 ± 0.3", "unit": "gm/dl"}, {"measurement": "Serum Urea", "setting": "[1]; Oral", "value": "24.3 ± 1.9", "unit": "mg/dL"}, {"measurement": "Serum alanine transaminase", "setting": "[1]; Oral", "value": "24 ± 2.5", "unit": "units/ml"}, {"measurement": "Serum alkaline phosphatase", "setting": "[1]; Oral", "value": "39.3 ± 1.6", "unit": "KA units"}, {"measurement": "Serum aspartate transaminase", "setting": "[1]; Oral", "value": "132 ± 3", "unit": "units/ml"}, {"measurement": "Serum creatinine", "setting": "[1]; Oral", "value": "0.82 ± 0.03", "unit": "mg/dL"}, {"measurement": "Serum glucose", "setting": "[1]; Oral", "value": "109 ± 6", "unit": "mg/dL"}, {"measurement": "Hb", "setting": "[1]; Subcutaneous", "value": "10.35 ± 0.35", "unit": "gm/dl"}, {"measurement": "Serum Urea", "setting": "[1]; Subcutaneous", "value": "23.5 ± 1.3", "unit": "mg/dL"}, {"measurement": "Serum alanine transaminase", "setting": "[1]; Subcutaneous", "value": "28 ± 2.8", "unit": "units/ml"}, {"measurement": "Serum alkaline phosphatase", "setting": "[1]; Subcutaneous", "value": "45.3 ± 1.8", "unit": "KA units"}, {"measurement": "Serum aspartate transaminase", "setting": "[1]; Subcutaneous", "value": "141 ± 7", "unit": "units/ml"}, {"measurement": "Serum creatinine", "setting": "[1]; Subcutaneous", "value": "0.85 ± 0.03", "unit": "mg/dL"}, {"measurement": "Serum glucose", "setting": "[1]; Subcutaneous", "value": "122 ± 3", "unit": "mg/dL"}, {"measurement": "abnormalities among the litters", "setting": "[2]", "value": "Neither deformation of organs nor any other abnormalities"}, {"measurement": "general physical conditions and behavioral pattern vs control", "setting": "[3]", "value": "no abnormalities"}, {"measurement": "V", "setting": "[4]; time after last dose 48-120 h", "value": 50.89, "unit": "L/kg"}, {"measurement": "k", "setting": "[4]; time after last dose 48-120 h", "value": 0.0231, "unit": "h − 1"}, {"measurement": "V", "setting": "[4]; [10]", "value": 73.90, "unit": "L/kg"}, {"measurement": "k", "setting": "[4]; [10]", "value": 0.0017, "unit": "h − 1"}, {"measurement": "day from which peak concentration was achieved", "setting": "[4]; [11]", "value": "three"}, {"measurement": "day on which the basal level was reached", "setting": "[4]; [11]", "value": "~35", "unit": "days"}, {"measurement": "half-life at 30 days", "setting": "[4]; time after last dose 48-120 h", "value": 30, "unit": "h"}, {"measurement": "half-life at 30 days", "setting": "[4]; [10]", "value": 408, "unit": "h"}, {"measurement": "death", "setting": "[5]", "value": "No death"}, {"measurement": "Lag time", "setting": "[6]; [12]", "value": "≈55 min"}, {"measurement": "V (apparent volume of distribution)", "setting": "[6]; [12]", "value": 23.31, "unit": "L/kg"}, {"measurement": "ka (apparent absorption rate constant)", "setting": "[6]; [12]", "value": 0.277, "unit": "h⁻¹"}, {"measurement": "k (elimination rate constant)", "setting": "[6]; [12]", "value": 0.33, "unit": "h⁻¹"}, {"measurement": "Lag time", "setting": "[6]; [13]", "value": "≈50 min"}, {"measurement": "V (apparent volume of distribution)", "setting": "[6]; [13]", "value": 41.84, "unit": "L/kg"}, {"measurement": "ka (apparent absorption rate constant)", "setting": "[6]; [13]", "value": 0.223, "unit": "h⁻¹"}, {"measurement": "k (elimination rate constant)", "setting": "[6]; [13]", "value": 0.198, "unit": "h⁻¹"}, {"measurement": "Lag time", "setting": "[6]; [14]", "value": "≈50 min"}, {"measurement": "V (apparent volume of distribution)", "setting": "[6]; [14]", "value": 80.97, "unit": "L/kg"}, {"measurement": "ka (apparent absorption rate constant)", "setting": "[6]; [14]", "value": 0.216, "unit": "h⁻¹"}, {"measurement": "k (elimination rate constant)", "setting": "[6]; [14]", "value": 0.192, "unit": "h⁻¹"}, {"measurement": "lag time", "setting": "[6]; mice, single oral dose, all the three doses (50, 100, 200 mg/kg)", "value": "50 to 55", "unit": "min"}, {"measurement": "concentrations in plasma and whole blood compared", "setting": "[6]; mice, untreated and orally treated", "value": "almost identical"}, {"measurement": "half-life", "setting": "[6]", "value": "2.1 to 3.6", "unit": "h"}, {"measurement": "CL/F", "setting": "[6]; 50 mg/kg", "value": 128, "unit": "mL/min/kg"}, {"measurement": "Cmax", "setting": "[6]; 50 mg/kg", "value": 13.9, "unit": "µM"}, {"measurement": "half-life", "setting": "[6]; 50 mg/kg", "value": 2.1, "unit": "h"}, {"measurement": "Tmax", "setting": "[6]; 50 mg/kg, tmax, mice, single oral dose 50 mg/kg", "value": "~4", "unit": "h"}, {"measurement": "CL/F", "setting": "[6]; 100 mg/kg", "value": 138, "unit": "mL/min/kg"}, {"measurement": "Cmax", "setting": "[6]; 100 mg/kg", "value": 18.7, "unit": "µM"}, {"measurement": "half-life", "setting": "[6]; 100 mg/kg", "value": 3.5, "unit": "h"}, {"measurement": "Tmax", "setting": "[6]; 100 mg/kg, tmax, mice, single oral dose 100 mg/kg", "value": "~4", "unit": "h"}, {"measurement": "CL/F", "setting": "[6]; 200 mg/kg", "value": 259, "unit": "mL/min/kg"}, {"measurement": "Cmax", "setting": "[6]; 200 mg/kg", "value": "19.5 ± 3.36", "unit": "µM"}, {"measurement": "half-life", "setting": "[6]; 200 mg/kg", "value": 3.6, "unit": "h"}, {"measurement": "Tmax", "setting": "[6]; 200 mg/kg, time of peak blood concentration (tmax), mice, single oral doses of 50, 100 and 200 mg/kg", "value": 4, "unit": "h"}, {"measurement": "Tmax", "setting": "[6]; 200 mg/kg, tmax, mice, single oral dose 200 mg/kg", "value": "~4", "unit": "h"}, {"measurement": "death and toxic effect (physical and behavioral)", "setting": "[7]", "value": "No death and toxic effect"}, {"measurement": "tumor development", "setting": "[8]", "value": "no tumor developed"}, {"measurement": "local reaction to intravenous injections", "setting": "[9]; intravenous, from 3rd week of the treatment", "value": "swelling appeared in the tail and adjoining regions"}, {"measurement": "toxic effect on physical condition and behavioral pattern, death", "setting": "[9]; multiple dose, observed up to 90 days after treatment", "value": "No toxic effect"}]}
